{
  "source": "patent US7416728B2",
  "about": "“Growth blocking agents” (Kyto Biopharma, Inc., priority 1992, dated 2008)",
  "key": {"[1]": {"test_system": "Myelocytic leukemia", "settings": "drug combined with vitamin B12 depletion (nitrous oxide); myelocytic leukemia/rats; cited from earlier work"}, "[2]": {"test_system": "Acute leukemia", "settings": "drug combined with vitamin B12 depletion (nitrous oxide); acute leukemia/rats; cited from earlier work"}, "[3]": {"test_system": "Raji Burkitt lymphoma cells", "experiment": "Subcutaneous Raji Burkitt lymphoma in nu/nu mice, tumor size", "type": "in vivo", "description": "Nu/nu mice are injected subcutaneously with 1 million Raji Burkitt lymphoma cells. After two weeks, barely palpable nodules are present at the injection site. Measurements are made in three dimensions with a planarimeter and equally sized tumors assigned to experimental groups of 10 mice. […] Therapy is administered once weekly. Controls of antibody and drug alone, as well as vehicle controls, are included. Mice are monitored visually for toxicity, death, and tumor size weekly for 8 weeks, at which time the experiment is terminated, the mice sacrificed, and the tumors removed and weighed."}, "[4]": {"test_system": "Raji Burkitt lymphoma cells", "experiment": "Cell viability by reduction of tetrazolium dye, three days, with and without methotrexate", "type": "cell-based, human", "settings": "100% lysis control = .047", "description": "Antibody D2/20 at a range of concentrations is incubated with Raji Burkitt lymphoma cells in microtiter plates for three days with and without chemotherapeutic drugs. Cell viability is measured by reduction of tetrazolium dye. Only viable cells metabolize the dye to an insoluble, colored product which is subsequently solubilized and read in a spectrophotometer."}},
  "data": [
    {"compound": "NC1(C(=O)O)CCCC1", "note": "[cycloleucine]", "values": [
      {"measurement": "Therapeutic Results", "setting": "[1]", "result": "additive"},
      {"measurement": "Therapeutic Results", "setting": "[2]", "result": "synergistic"}
    ]},
    {"compound": "CN(Cc1cnc2nc(N)nc(N)c2n1)c1ccc(C(=O)N[C@@H](CCC(=O)O)C(=O)O)cc1", "note": "[Methotrexate, methotrexate]", "values": [
      {"measurement": "average of serial tumor measurements converted to weight", "setting": "[3]; week 1, methotrexate 5 Milligrams/M^2 i.v. once weekly", "result": ".07 grams"},
      {"measurement": "average of serial tumor measurements converted to weight", "setting": "[3]; week 1, methotrexate 10 Milligrams/M^2 i.v. once weekly", "result": ".05 grams"},
      {"measurement": "average of serial tumor measurements converted to weight", "setting": "[3]; week 1, methotrexate 50 Milligrams/M^2 i.v. once weekly", "result": ".04 grams"},
      {"measurement": "average of serial tumor measurements converted to weight", "setting": "[3]; week 2, methotrexate 5 Milligrams/M^2 i.v. once weekly", "result": ".14 grams"},
      {"measurement": "average of serial tumor measurements converted to weight", "setting": "[3]; week 2, methotrexate 10 Milligrams/M^2 i.v. once weekly", "result": ".12 grams"},
      {"measurement": "average of serial tumor measurements converted to weight", "setting": "[3]; week 2, methotrexate 50 Milligrams/M^2 i.v. once weekly", "result": ".10 grams"},
      {"measurement": "average of serial tumor measurements converted to weight", "setting": "[3]; week 3, methotrexate 5 Milligrams/M^2 i.v. once weekly", "result": ".43 grams"},
      {"measurement": "average of serial tumor measurements converted to weight", "setting": "[3]; week 3, methotrexate 10 Milligrams/M^2 i.v. once weekly", "result": ".30 grams"},
      {"measurement": "average of serial tumor measurements converted to weight", "setting": "[3]; week 3, methotrexate 50 Milligrams/M^2 i.v. once weekly", "result": ".25 grams"},
      {"measurement": "average of serial tumor measurements converted to weight", "setting": "[3]; week 4, methotrexate 5 Milligrams/M^2 i.v. once weekly", "result": ".70 grams"},
      {"measurement": "average of serial tumor measurements converted to weight", "setting": "[3]; week 4, methotrexate 10 Milligrams/M^2 i.v. once weekly", "result": ".53 grams"},
      {"measurement": "average of serial tumor measurements converted to weight", "setting": "[3]; week 4, methotrexate 50 Milligrams/M^2 i.v. once weekly", "result": ".41 grams"},
      {"measurement": "average of serial tumor measurements converted to weight", "setting": "[3]; week 5, methotrexate 5 Milligrams/M^2 i.v. once weekly", "result": 1.2, "unit": "grams"},
      {"measurement": "average of serial tumor measurements converted to weight", "setting": "[3]; week 5, methotrexate 10 Milligrams/M^2 i.v. once weekly", "result": ".92 grams"},
      {"measurement": "average of serial tumor measurements converted to weight", "setting": "[3]; week 5, methotrexate 50 Milligrams/M^2 i.v. once weekly", "result": ".73 grams"},
      {"measurement": "average of serial tumor measurements converted to weight", "setting": "[3]; week 6, methotrexate 5 Milligrams/M^2 i.v. once weekly", "result": 2.6, "unit": "grams"},
      {"measurement": "average of serial tumor measurements converted to weight", "setting": "[3]; week 6, methotrexate 10 Milligrams/M^2 i.v. once weekly", "result": 2.1, "unit": "grams"},
      {"measurement": "average of serial tumor measurements converted to weight", "setting": "[3]; week 6, methotrexate 50 Milligrams/M^2 i.v. once weekly", "result": 1.4, "unit": "grams"},
      {"measurement": "average of serial tumor measurements converted to weight", "setting": "[3]; week 7, methotrexate 5 Milligrams/M^2 i.v. once weekly", "result": 4.8, "unit": "grams"},
      {"measurement": "average of serial tumor measurements converted to weight", "setting": "[3]; week 7, methotrexate 10 Milligrams/M^2 i.v. once weekly", "result": 4.8, "unit": "grams"},
      {"measurement": "average of serial tumor measurements converted to weight", "setting": "[3]; week 7, methotrexate 50 Milligrams/M^2 i.v. once weekly", "result": 2.3, "unit": "grams"},
      {"measurement": "average of serial tumor measurements converted to weight", "setting": "[3]; week 8, methotrexate 5 Milligrams/M^2 i.v. once weekly", "result": 7.2, "unit": "grams"},
      {"measurement": "average of serial tumor measurements converted to weight", "setting": "[3]; week 8, methotrexate 10 Milligrams/M^2 i.v. once weekly", "result": 6.9, "unit": "grams"},
      {"measurement": "average of serial tumor measurements converted to weight", "setting": "[3]; week 8, methotrexate 50 Milligrams/M^2 i.v. once weekly", "result": 3.4, "unit": "grams"},
      {"measurement": "cell viability, tetrazolium dye reading", "setting": "[4]; antibody 0, methotrexate 0.1 micrograms/ml", "result": ".993"},
      {"measurement": "cell viability, tetrazolium dye reading", "setting": "[4]; antibody 0, methotrexate 1 micrograms/ml", "result": ".798"},
      {"measurement": "Therapeutic Results", "setting": "[1]", "result": "synergistic"},
      {"measurement": "Therapeutic Results", "setting": "[2]", "result": "synergistic"}
    ]},
    {"compound": "O=c1[nH]cc(F)c(=O)[nH]1", "note": "[Clone 5-FU, 5-fluorouracil]", "values": [
      {"measurement": "Therapeutic Results", "setting": "[1]", "result": "additive"},
      {"measurement": "Therapeutic Results", "setting": "[2]", "result": "additive"}
    ]}
  ]
}
